The source made the active and inactive calls. The rule behind the calls is not given here.
What was measured:
HeLa [1] = assay: Antiproliferative activity against human HeLa cells assessed as cell viability at 10 uM incubated for 48 hrs by MTT assay; type: functional; conditions: read-out: Activity
HepG2 [2] = assay: Antiproliferative activity against human HepG2 cells assessed as cell viability at 10 uM incubated for 48 hrs by MTT assay; type: functional; conditions: read-out: Activity
[3] = Cytotoxicity against human L02 cells assessed as cell viability at 10 uM incubated for 48 hrs by MTT assay; type: toxicity, cell-based; conditions: read-out: Activity
[4] = molecular target: T1, Nuclear receptor subfamily 4immunitygroup A member 1 (Homo sapiens, UniProt P22736); assay: Binding affinity to Nur77-LBD (unknown origin)
T1 sequence (P22736 whole entry, the tested form may be a part): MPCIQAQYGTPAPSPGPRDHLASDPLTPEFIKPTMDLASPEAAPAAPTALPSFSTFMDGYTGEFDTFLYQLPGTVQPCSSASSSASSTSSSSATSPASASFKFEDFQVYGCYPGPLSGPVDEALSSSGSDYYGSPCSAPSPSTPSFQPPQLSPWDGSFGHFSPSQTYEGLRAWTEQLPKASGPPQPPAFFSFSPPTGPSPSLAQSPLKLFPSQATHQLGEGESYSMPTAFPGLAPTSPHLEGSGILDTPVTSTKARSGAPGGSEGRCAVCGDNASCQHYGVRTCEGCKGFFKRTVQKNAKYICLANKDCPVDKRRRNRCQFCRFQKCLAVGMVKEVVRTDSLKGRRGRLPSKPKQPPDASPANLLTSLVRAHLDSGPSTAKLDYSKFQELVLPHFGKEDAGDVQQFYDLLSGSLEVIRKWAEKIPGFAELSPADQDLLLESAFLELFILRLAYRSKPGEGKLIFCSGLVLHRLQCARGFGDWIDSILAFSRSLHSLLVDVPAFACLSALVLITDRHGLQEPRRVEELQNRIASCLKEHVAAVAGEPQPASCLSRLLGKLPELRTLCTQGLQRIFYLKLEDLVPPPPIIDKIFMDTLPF

[5] = Selectivity index, ratio of IC50 for human L02 cells to IC50 for human Huh-7 cells by MTT assay; type: toxicity; conditions: L02 cells versus Huh-7 cells, read-out: Ratio IC50
[6] = Cytotoxicity against human L02 cells assessed as reduction in cell viability incubated for 48 hrs by MTT assay; type: toxicity, cell-based
[7] = Selectivity index, ratio of IC50 for human L02 cells to IC50 for human A549 cells by MTT assay; type: toxicity; conditions: L02 cells versus A549 cells, read-out: Ratio IC50
[8] = Selectivity index, ratio of IC50 for human L02 cells to IC50 for human SMMC-7721 cells by MTT assay; type: toxicity; conditions: L02 cells versus SMMC-7721 cells, read-out: Ratio IC50
[9] = Toxicity in Zebra fish AB embryo assessed as mortality rate at 1 uM incubated for 24 hrs; set-up: species or system Danio rerio; conditions: zebrafish, read-out: Activity
Huh-7 = assay: Antiproliferative activity against human Huh-7 cells assessed as reduction in cell viability incubated for 48 hrs by MTT assay; type: functional, cell-based; conditions: Huh-7, 48 h
SMMC-7721 = assay: Antiproliferative activity against human SMMC-7721 cells assessed as reduction in cell viability incubated for 48 hrs by MTT assay; type: functional, cell-based; conditions: SMMC-7721, 48 h
HeLa [10] = assay: Antiproliferative activity against human HeLa cells assessed as reduction in cell viability incubated for 48 hrs by MTT assay; type: functional, cell-based
[11] = Selectivity index, ratio of IC50 for human L02 cells to IC50 for human HeLa cells by MTT assay; type: toxicity; conditions: L02 cells versus HeLa cells, read-out: Ratio IC50
[12] = Selectivity index, ratio of IC50 for human L02 cells to IC50 for human HepG2 cells by MTT assay; type: toxicity; conditions: L02 cells versus HepG2 cells, read-out: Ratio IC50
[13] = Selectivity index, ratio of IC50 for human L02 cells to IC50 for human MDA-MB-231 cells by MTT assay; type: toxicity; conditions: L02 cells versus MDA-MB-231 cells, read-out: Ratio IC50
[14] = Toxicity in Zebra fish AB embryo assessed as mortality rate at 0.5 uM incubated for 24 hrs; set-up: species or system Danio rerio; conditions: zebrafish, read-out: Activity
[15] = molecular target: T1, Nuclear receptor subfamily 4immunitygroup A member 1; assay: Binding affinity to pBind-Nur77-LBD (unknown origin) transfected in HEK293T cells co-transfected with pG5-Luc assessed as inhibition of Nur77 transcriptional activity by measuring inhibition of Nur77-driven luciferase activity at 2 uM incubated for 12 hrs by luciferase reporter gene assay; type: cell-based; conditions: filed as modulator
[16] = Toxicity in Zebra fish AB embryo assessed as mortality rate at 1 uM incubated for 72 hrs; set-up: species or system Danio rerio; conditions: zebrafish, read-out: Activity
HepG2 [17] = assay: Antiproliferative activity against human HepG2 cells assessed as reduction in cell viability incubated for 48 hrs by MTT assay; type: functional, cell-based; conditions: HepG2, 48 h
A549 = assay: Antiproliferative activity against human A549 cells assessed as reduction in cell viability incubated for 48 hrs by MTT assay; type: functional, cell-based; conditions: A549, 48 h
MDA-MB-231 = assay: Antiproliferative activity against human MDA-MB-231 cells assessed as reduction in cell viability incubated for 48 hrs by MTT assay; type: functional, cell-based; conditions: MDA-MB-231, 48 h
[18] = Toxicity in Zebra fish AB embryo assessed as mortality rate at 0.5 uM incubated for 72 hrs; set-up: species or system Danio rerio; conditions: zebrafish, read-out: Activity
[19] = molecular target: T1, Nuclear receptor subfamily 4immunitygroup A member 1; assay: Binding affinity to Nur77 (unknown origin)

COc1cccc(NC(=O)c2cc3cc(Nc4nccc(-c5cccnc5)n4)ccc3[nH]2)c1
viability at 10 µM (HeLa [1]): 30.2%
viability at 10 µM (HepG2 [2]): 55.2%
viability at 48 h, 10 µM [3]: 68.6%

COc1cc(NC(=O)c2cc3cc(Nc4nccc(-c5cccnc5)n4)ccc3[nH]2)cc(OC)c1OC
viability at 10 µM (HeLa [1]): 44.6%
viability at 10 µM (HepG2 [2]): 83.3%
viability at 48 h, 10 µM [3]: 43.6%

Cc1ccc(NC(=O)c2cc3cc(Nc4nccc(-c5cccnc5)n4)ccc3[nH]2)c(C)c1
viability at 10 µM (HeLa [1]): 38.3%
viability at 10 µM (HepG2 [2]): 59.8%
viability at 48 h, 10 µM [3]: 48.3%

O=C(NC12CC3CC(CC(C3)C1)C2)c1cc2cc(Nc3nccc(-c4cccnc4)n3)ccc2[nH]1
viability at 10 µM (HeLa [1]): 124%
viability at 10 µM (HepG2 [2]): 83.4%
viability at 48 h, 10 µM [3]: 81.3%

O=C(Nc1ccc(F)c(F)c1F)c1cc2cc(Nc3nccc(-c4cccnc4)n3)ccc2[nH]1
viability at 10 µM (HeLa [1]): 99.8%
viability at 10 µM (HepG2 [2]): 114%
viability at 48 h, 10 µM [3]: 109%

COc1ccc(NC(=O)c2cc3cc(Nc4nccc(-c5cccnc5)n4)ccc3[nH]2)c(C)c1
viability at 10 µM (HeLa [1]): 54.8%
viability at 10 µM (HepG2 [2]): 82.9%
viability at 48 h, 10 µM [3]: 69%

Nc1ccccc1NC(=O)c1cc2cc(Nc3nccc(-c4cccnc4)n3)ccc2[nH]1
viability at 10 µM (HeLa [1]): 33.2%
viability at 10 µM (HepG2 [2]): 76.4%
viability at 48 h, 10 µM [3]: 71.1%

O=C(NCc1ccccc1)c1cc2cc(Nc3nccc(-c4cccnc4)n3)ccc2[nH]1
viability at 10 µM (HeLa [1]): 82%
viability at 10 µM (HepG2 [2]): 113%
viability at 48 h, 10 µM [3]: 94.8%

CCN(CC)CCCNC(=O)c1cc2cc(Nc3nccc(-c4cccnc4)n3)ccc2[nH]1
viability at 10 µM (HeLa [1]): 39.4%
viability at 10 µM (HepG2 [2]): 67.8%
viability at 48 h, 10 µM [3]: 82.6%

O=C(NCCN1CCCCC1)c1cc2cc(Nc3nccc(-c4cccnc4)n3)ccc2[nH]1
viability at 10 µM (HeLa [1]): 24.9%
viability at 10 µM (HepG2 [2]): 53.7%
viability at 48 h, 10 µM [3]: 59.1%

O=C(Nc1ccccc1)c1cc2cc(Nc3nccc(-c4cccnc4)n3)ccc2[nH]1
viability at 10 µM (HeLa [1]): 46.4%
viability at 10 µM (HepG2 [2]): 84.4%
viability at 48 h, 10 µM [3]: 70.9%

O=C(c1cc2cc(Nc3nccc(-c4cccnc4)n3)ccc2[nH]1)N1CCOCC1
viability at 10 µM (HeLa [1]): 36.8%
viability at 10 µM (HepG2 [2]): 78.2%
viability at 48 h, 10 µM [3]: 62.3%

COc1ccc2ccccc2c1/C=N/NC(=O)c1cc2cc(Nc3cc(C)nc4c(OC)cccc34)ccc2[nH]1
Kd [4]: 2.25 µM

O=C(Nc1cc(Br)ccn1)c1cc2cc(Nc3nccc(-c4cccnc4)n3)ccc2[nH]1
viability at 10 µM (HeLa [1]): 115%
viability at 10 µM (HepG2 [2]): 85.9%
viability at 48 h, 10 µM [3]: 81.1%

COc1cc(NC(=O)c2cc3cc(Nc4nccc(-c5cccnc5)n4)ccc3[nH]2)cc(OC)c1
viability at 10 µM (HeLa [1]): 29.7%
viability at 10 µM (HepG2 [2]): 40.8%
viability at 48 h, 10 µM [3]: 43.6%

Cc1ccc(NC(=O)c2cc3cc(Nc4nccc(-c5cccnc5)n4)ccc3[nH]2)cc1C
viability at 10 µM (HeLa [1]): 43.4%
viability at 10 µM (HepG2 [2]): 69.9%
viability at 48 h, 10 µM [3]: 55.8%

O=C(Nc1cncnc1)c1cc2cc(Nc3nccc(-c4cccnc4)n3)ccc2[nH]1
viability at 10 µM (HeLa [1]): 108%
viability at 10 µM (HepG2 [2]): 81.6%
viability at 48 h, 10 µM [3]: 76.2%

Cc1ccc(NC(=O)c2cc3cc(Nc4nccc(-c5cccnc5)n4)ccc3[nH]2)c(N)c1
viability at 10 µM (HeLa [1]): 29.5%
viability at 10 µM (HepG2 [2]): 36.2%
viability at 48 h, 10 µM [3]: 38.3%

CCCCNC(=O)c1cc2cc(Nc3nccc(-c4cccnc4)n3)ccc2[nH]1
viability at 10 µM (HeLa [1]): 104%
viability at 10 µM (HepG2 [2]): 107%
viability at 48 h, 10 µM [3]: 102%

Nc1ccc(Cl)cc1NC(=O)c1cc2cc(Nc3nccc(-c4cccnc4)n3)ccc2[nH]1
viability at 10 µM (HeLa [1]): 89.5%
viability at 10 µM (HepG2 [2]): 97.7%
viability at 48 h, 10 µM [3]: 62.3%

CC1=C(O)C(=O)C=C2C1=CC=C1[C@@]2(C)CC[C@@]2(C)[C@@H]3C[C@](C)(C(=O)O)CC[C@]3(C)CC[C@]12C [CELASTROL]
viability at 10 µM (HeLa [1]): 49.2%
selectivity ratio [5]: 0.25
IC50 at 48 h [6]: 1.12 µM
viability at 10 µM (HepG2 [2]): 18.7%
selectivity ratio [7]: 0.22
selectivity ratio [8]: 0.19
mortality at 24 h, 1 µM [9]: 100%
IC50 (Huh-7): 4.45 µM
IC50 (SMMC-7721): 6.04 µM
IC50 (HeLa [10]): 1.21 µM
selectivity ratio [11]: 0.87
selectivity ratio [12]: 0.3
selectivity ratio [13]: 1.04
mortality at 24 h, 0.5 µM [14]: 30%
Activity [15]: Active
mortality at 72 h, 1 µM [16]: 100%
IC50 (HepG2 [17]): 3.73 µM
IC50 (A549): 4.99 µM
IC50 (MDA-MB-231): 1.08 µM
viability at 48 h, 10 µM [3]: 13%
mortality at 72 h, 0.5 µM [18]: 94%

O=C(NCc1cccc(F)c1)c1cc2cc(Nc3nccc(-c4cccnc4)n3)ccc2[nH]1
viability at 10 µM (HeLa [1]): 80%
viability at 10 µM (HepG2 [2]): 82.5%
viability at 48 h, 10 µM [3]: 71.1%

COc1ccc(NC(=O)c2cc3cc(Nc4nccc(-c5cccnc5)n4)ccc3[nH]2)cc1OC
viability at 10 µM (HeLa [1]): 74.4%
viability at 10 µM (HepG2 [2]): 109%
viability at 48 h, 10 µM [3]: 91.9%

Cc1ccccc1NC(=O)c1cc2cc(Nc3nccc(-c4cccnc4)n3)ccc2[nH]1
viability at 10 µM (HeLa [1]): 35.4%
viability at 10 µM (HepG2 [2]): 90.4%
viability at 48 h, 10 µM [3]: 84.1%

O=C(N/N=C/c1ccncc1)c1cc2cc(Nc3ccnc4ccccc34)ccc2[nH]1
Kd [19]: 1.17 µM

Cc1ccc(NC(=O)c2cc3cc(Nc4nccc(-c5cccnc5)n4)ccc3[nH]2)cc1Nc1nccc(-c2cccnc2)n1
viability at 10 µM (HeLa [1]): 95.9%
viability at 10 µM (HepG2 [2]): 86.5%
viability at 48 h, 10 µM [3]: 79.6%

— ChEMBL document CHEMBL5247610, “Discovery of 5-((4-(pyridin-3-yl)pyrimidin-2-yl)amino)-1H-indole-2-carboxamide derivatives as novel anti-cancer agents targeting Nur77” (Eur J Med Chem, 2022)
